The target of one data set is T1, CYP1A2 (Homo sapiens, UniProt P05177).
T1 construct: Mixed human liver microsomes; from tissue; host or cells: mixed (pooled) human liver microsomes
T1 sequence (P05177 1-516): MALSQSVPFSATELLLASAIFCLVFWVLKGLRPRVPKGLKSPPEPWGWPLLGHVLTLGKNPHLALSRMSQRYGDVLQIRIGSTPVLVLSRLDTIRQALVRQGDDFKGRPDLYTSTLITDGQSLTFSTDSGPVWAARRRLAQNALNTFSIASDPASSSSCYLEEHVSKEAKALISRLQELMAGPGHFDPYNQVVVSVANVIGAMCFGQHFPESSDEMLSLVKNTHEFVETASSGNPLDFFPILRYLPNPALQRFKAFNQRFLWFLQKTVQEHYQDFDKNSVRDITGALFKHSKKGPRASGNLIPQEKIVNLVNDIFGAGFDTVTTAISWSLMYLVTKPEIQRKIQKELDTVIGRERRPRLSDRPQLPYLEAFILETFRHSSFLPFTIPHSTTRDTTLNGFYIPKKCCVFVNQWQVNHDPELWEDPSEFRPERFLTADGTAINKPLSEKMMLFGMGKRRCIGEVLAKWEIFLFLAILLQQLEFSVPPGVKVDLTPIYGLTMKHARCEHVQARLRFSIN
Put plainly: CYP inhibition assay in mixed human liver microsomes. The format is in vitro ADME. Particulars: read-out: Inhibition Rate % CYP1A2. As to the method: (§1) The inhibitory effects of the compounds on six enzymes, i.e., CYP1A2, CYP2C9, CYP2C19, CYP2D6, CYP3A4 (midazolam), and CYP2B6, were evaluated at a concentration of 10 µM. Mixed human liver microsomes, which were previously stored in a -80°C refrigerator before use, were taken out and thawed in a water bath at 37°C before use, and placed on ice for further operation. 100 µL of microsome working solution was taken, and added with 2 µL of compound or positive inhibitor working solution. 2 µL of solvent was added to the solvent control. The mixture was pre-incubated in a water bath at 37°C for 10 minutes. After the preincubation, 98 µL of NADPH regeneration solution was added to all samples to initiate the reaction. Then, the samples were put back into the water bath and incubated for a period of time. The reaction was quenched with 200 µL of stop solution. The plate was centrifuged at 3,220 g for 10 minutes, 100 µL of supernatant was transferred, and 100 µL of water was added and mixed well to the assay plate for LC/MS/MS analysis. [Table 2] CYP450 Inhibition Results of Compounds
A general note: Liver microsomes are vesicles of endoplasmic reticulum, rich in cytochrome P450 enzymes.

A further data set concerns the target T2, CYP2B6 (Homo sapiens, UniProt P20813).
T2 construct: Mixed human liver microsomes; from tissue; host or cells: mixed (pooled) human liver microsomes
T2 sequence (P20813 1-491): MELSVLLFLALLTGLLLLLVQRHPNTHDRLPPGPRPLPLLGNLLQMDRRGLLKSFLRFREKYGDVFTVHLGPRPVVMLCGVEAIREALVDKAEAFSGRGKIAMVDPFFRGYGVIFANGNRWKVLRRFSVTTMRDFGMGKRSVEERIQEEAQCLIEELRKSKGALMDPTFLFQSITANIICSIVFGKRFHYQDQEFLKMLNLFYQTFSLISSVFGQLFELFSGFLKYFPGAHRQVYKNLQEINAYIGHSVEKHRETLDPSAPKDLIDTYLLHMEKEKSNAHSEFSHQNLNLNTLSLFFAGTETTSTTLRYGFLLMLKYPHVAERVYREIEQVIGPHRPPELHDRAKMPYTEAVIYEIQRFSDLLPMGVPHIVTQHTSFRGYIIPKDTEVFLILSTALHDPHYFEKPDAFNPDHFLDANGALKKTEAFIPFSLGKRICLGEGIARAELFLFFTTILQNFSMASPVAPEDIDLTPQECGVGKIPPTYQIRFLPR
The description is as above. The format is in vitro ADME. Particulars: read-out: Inhibition Rate % CYP2B6. As to the method:
as §1

The target of the next data set is T3, CYP2C19 (Homo sapiens, UniProt P33261).
T3 construct: Mixed human liver microsomes; from tissue; host or cells: mixed (pooled) human liver microsomes
T3 sequence (P33261 whole entry): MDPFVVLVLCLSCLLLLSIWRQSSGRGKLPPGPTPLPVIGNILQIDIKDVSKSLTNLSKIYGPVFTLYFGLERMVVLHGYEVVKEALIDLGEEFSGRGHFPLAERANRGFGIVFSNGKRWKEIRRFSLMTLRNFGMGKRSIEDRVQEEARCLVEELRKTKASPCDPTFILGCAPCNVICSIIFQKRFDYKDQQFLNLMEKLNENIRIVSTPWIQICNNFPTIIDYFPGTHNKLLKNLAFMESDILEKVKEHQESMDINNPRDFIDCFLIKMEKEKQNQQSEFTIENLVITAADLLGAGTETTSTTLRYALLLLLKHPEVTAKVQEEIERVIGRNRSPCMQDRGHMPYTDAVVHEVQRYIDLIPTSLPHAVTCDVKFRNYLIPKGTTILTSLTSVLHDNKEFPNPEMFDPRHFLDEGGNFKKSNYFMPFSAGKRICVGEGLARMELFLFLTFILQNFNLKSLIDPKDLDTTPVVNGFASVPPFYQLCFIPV
The description is as above. The format is in vitro ADME. The following applies: read-out: Inhibition Rate % CYP2C19. As to the method:
as §1

A further data set addresses T4, CYP2C9 (Homo sapiens, UniProt P11712).
T4 construct: Mixed human liver microsomes; from tissue; host or cells: mixed (pooled) human liver microsomes
The data set is described as above. The data set is classed as in vitro ADME. Particulars: read-out: Inhibition Rate % CYP2C9. As to the method: as §1

For the next data set, the target named is T5, CYP2D6 (Homo sapiens, UniProt P10635).
T5 construct: Mixed human liver microsomes; from tissue; host or cells: mixed (pooled) human liver microsomes
T5 sequence (P10635 whole entry): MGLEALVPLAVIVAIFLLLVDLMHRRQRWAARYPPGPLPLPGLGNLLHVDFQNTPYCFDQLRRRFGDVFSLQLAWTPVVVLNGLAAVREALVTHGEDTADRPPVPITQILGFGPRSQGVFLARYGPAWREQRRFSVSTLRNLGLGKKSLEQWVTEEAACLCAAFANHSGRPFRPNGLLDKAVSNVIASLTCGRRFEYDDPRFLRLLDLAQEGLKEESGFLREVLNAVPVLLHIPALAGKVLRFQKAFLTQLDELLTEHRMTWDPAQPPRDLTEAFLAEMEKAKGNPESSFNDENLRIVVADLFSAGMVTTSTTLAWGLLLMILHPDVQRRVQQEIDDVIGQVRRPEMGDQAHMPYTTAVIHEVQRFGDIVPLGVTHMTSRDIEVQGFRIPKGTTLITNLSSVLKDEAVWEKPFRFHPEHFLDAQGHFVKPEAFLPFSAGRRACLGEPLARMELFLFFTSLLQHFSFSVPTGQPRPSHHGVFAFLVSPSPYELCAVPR
Described as above. The data set is classed as in vitro ADME. Particulars: read-out: Inhibition Rate % CYP2D6. As to the method: as §1

The target of a further data set is T6, CYP3A4 (Homo sapiens, UniProt P08684).
T6 construct: Mixed human liver microsomes; from tissue; host or cells: mixed (pooled) human liver microsomes
T6 sequence (P08684 whole entry): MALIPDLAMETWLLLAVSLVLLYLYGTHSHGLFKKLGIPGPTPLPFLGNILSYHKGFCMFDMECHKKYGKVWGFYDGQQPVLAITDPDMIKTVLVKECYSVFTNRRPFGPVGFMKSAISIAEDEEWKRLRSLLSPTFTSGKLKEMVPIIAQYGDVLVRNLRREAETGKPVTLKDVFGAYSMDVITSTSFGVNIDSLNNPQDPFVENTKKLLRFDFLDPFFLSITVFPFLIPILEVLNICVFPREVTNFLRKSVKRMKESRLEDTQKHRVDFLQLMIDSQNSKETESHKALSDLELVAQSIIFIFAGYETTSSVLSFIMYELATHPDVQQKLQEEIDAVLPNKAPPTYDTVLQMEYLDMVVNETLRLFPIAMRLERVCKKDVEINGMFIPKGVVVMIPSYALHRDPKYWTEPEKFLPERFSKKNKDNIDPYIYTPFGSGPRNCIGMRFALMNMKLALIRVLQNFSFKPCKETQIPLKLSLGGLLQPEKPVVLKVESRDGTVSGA
Described as above. The format is in vitro ADME. The following applies: probe midazolam, read-out: Inhibition Rate % CYP3A4 (midazolam). As to the method:
as §1

Another data set addresses T7, AT2R (Homo sapiens, UniProt P50052).
T7 construct: purchased Cisbio #C1TT1AT2
T7 sequence (P50052 1-363): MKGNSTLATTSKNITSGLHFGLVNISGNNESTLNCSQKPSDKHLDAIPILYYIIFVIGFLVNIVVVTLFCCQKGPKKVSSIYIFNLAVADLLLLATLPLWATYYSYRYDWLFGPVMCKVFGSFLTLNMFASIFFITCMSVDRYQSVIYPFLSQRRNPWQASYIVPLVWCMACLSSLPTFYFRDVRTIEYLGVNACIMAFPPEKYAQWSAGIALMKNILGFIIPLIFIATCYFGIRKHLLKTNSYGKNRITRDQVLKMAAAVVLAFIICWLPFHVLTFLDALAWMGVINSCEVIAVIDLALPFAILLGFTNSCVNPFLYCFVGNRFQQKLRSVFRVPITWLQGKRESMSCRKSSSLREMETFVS
As to the kind of experiment: Binding assay of compounds to AT2R (Tag-lite HTRF ligand binding kit). As to the method:
The assay was performed in accordance with the manufacturer instructions of Angiotensin AT2 Receptor Ligand Binding Assay Kit (#C1TT1AT2, Cisbio). First, a 10 mM compound stock solution was diluted in a gradient at a 5× dilution ratio (including 10 concentrations, each with two replicates). 160 nL of compounds at different concentrations was added to a 384-well plate. 40 µL of 1× TLB (TLB: Tag-lite buffer) was added to each well, and the mixture was shaken at room temperature for 15 minutes. A 15 mL centrifuge tube added with 5 mL of 1×TLB was prepared in advance. The frozen labeled cells were thawed in a water bath at 37°C (for 1 to 2 minutes), and the thawed cells were quickly transferred to the above 15 mL centrifuge tube. The mixture was mixed well and centrifuged at 1,000 g at room temperature for 5 minutes. The supernatant was removed, and the cells were resuspended by adding 2.7 mL 1× TLB. A new 384-well plate was taken, and 10 µL of mixed cells were added into the corresponding wells according to the assay design. 5 µL of 4× compound solution and 5 µL of 4× Tag-lite red fluorescent labeled ligand were added to each well. After incubation at room temperature for 1 hour, data were read using EnVision with an HTRF mode. The […] at 665nM and 615nM in each well were read respectively, and the ratio was calculated (Ratio=A665nM/B615nM). The IC50 value was calculated by means of GraphPad Prism8 software, where X represents logarithmic value of compound concentration; and Y represents ratio of A665nM/B615nM.
(In general: Time-resolved FRET reads energy transfer from a long-lived donor to a nearby acceptor.)

T4 sequence (P11712 whole entry): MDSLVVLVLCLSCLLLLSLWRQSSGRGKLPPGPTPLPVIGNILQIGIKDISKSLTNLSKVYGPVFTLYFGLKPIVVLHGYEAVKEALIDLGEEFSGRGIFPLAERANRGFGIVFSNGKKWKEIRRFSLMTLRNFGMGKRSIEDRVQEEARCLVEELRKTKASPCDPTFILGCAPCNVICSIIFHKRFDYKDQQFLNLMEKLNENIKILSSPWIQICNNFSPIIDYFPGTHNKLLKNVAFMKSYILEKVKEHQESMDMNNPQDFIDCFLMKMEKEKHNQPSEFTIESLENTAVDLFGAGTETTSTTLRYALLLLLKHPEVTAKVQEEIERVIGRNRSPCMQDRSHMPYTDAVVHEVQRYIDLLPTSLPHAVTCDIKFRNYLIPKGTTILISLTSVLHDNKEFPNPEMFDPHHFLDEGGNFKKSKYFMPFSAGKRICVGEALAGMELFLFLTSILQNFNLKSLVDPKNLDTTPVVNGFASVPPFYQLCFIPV

Consider `CCCCOC(=O)NS(=O)(=O)c1sc(CC(C)C)cc1-c1ccc(Cn2ccnc2)cc1` [Control Compound I, reference compound], for which the inhibition – broadly, the percentage by which the read-out fell short of the control – at 10 µM on CYP1A2 is 95.4%; on CYP2B6, 63.2%; on CYP2C19 it was 100%; on CYP2C9 it was 100%; at CYP2D6 it was 86.5%; on CYP3A4, 92.6%.
Turning to `COC(=O)NS(=O)(=O)c1sc(CC(C)C)c(C)c1-c1ccc(Cn2ccnc2C(F)(F)F)cc1` [Compound I-9, Methyl ((5-isobutyl-4-methyl-3-(4-((2-(trifluoromethyl)-1H-imidazol-1-yl)methyl)phenyl)thiophen-2-yl)sulfonyl)carbamate], at AT2R, the IC50 (commonly the concentration that gives 50% inhibition) worked out at 5.13 nM. For the same compound, the inhibition at 10 µM at CYP1A2 is 0%; at CYP2B6, 22.2%; at CYP2C19, 29.8%; on CYP2C9, 18.6%; at CYP2D6, 0%; at CYP3A4, 0%.
`COC(=O)NS(=O)(=O)c1sc(CC(C)C)c(C)c1-c1ccc(Cn2ccnc2C(C)(C)O)cc1` [Compound I-19, Methyl ((3-(4-((2-(2-hydroxypropan-2-yl)-1H-imidazol-1-yl)methyl)phenyl)-5-isobutyl-4-methylthiophen-2-yl)sulfonyl)carbamate] yielded an IC50 on AT2R of 2.91 nM. In addition, the inhibition at 10 µM turned out to be 0% at CYP1A2; 3.8% at CYP2B6; 0% at CYP2C19; 0% at CYP2C9; 0% at CYP2D6; 7.6% on CYP3A4.
On AT2R, `Cc1c(CC(C)C)sc(S(=O)(=O)NC(=O)OCCO)c1-c1ccc(Cn2ccnc2C(F)(F)F)cc1` [Compound I-13, 2-hydroxyethyl ((5-isobutyl-4-methyl-3-(4-((2-(trifluoromethyl)-1H-imidazol-1-yl)methyl)phenyl)thiophen-2-yl)sulfonyl)carbamate] showed an IC50 of 2.6 nM. Further, the inhibition at 10 µM is 3.5% at CYP1A2; 11.3% at CYP2B6; 17.3% at CYP2C19; 12.2% at CYP2C9; 0% at CYP2D6; 9.6% at CYP3A4.
On AT2R, `Cc1c(CC(C)C)sc(S(=O)(=O)Nc2ncccn2)c1-c1ccc(Cn2ccnc2Cl)cc1` [Compound I-23, 3-(4-((2-chloro-1H-imidazol-1-yl)methyl)phenyl)-5-isobutyl-4-methyl-N-(pyrimidin-2-yl)thiophene-2-sulfonamide] showed an IC50 of 1.79 nM. Further, the inhibition at 10 µM on CYP1A2 worked out at 8.3%; on CYP2B6, 7.6%; at CYP2C19, 15.4%; on CYP2C9, 20.5%; on CYP2D6, 0%; on CYP3A4, 0%.
Compound `Cc1c(CC(C)C)sc(S(=O)(=O)NC(=O)OCC(C)(C)O)c1-c1ccc(Cn2ccnc2C(F)(F)F)cc1` [Compound I-10, 2-hydroxy-2-methylpropyl ((5-isobutyl-4-methyl-3-(4-((2-(trifluoromethyl)-1H-imidazol-1-yl)methyl)phenyl)thiophen-2-yl)sulfonyl)carbamate] had an IC50 on AT2R of 2.31 nM. Further, the inhibition at 10 µM is 0% on CYP1A2; 13.7% on CYP2B6; 7.4% at CYP2C19; 5.3% at CYP2C9; 0% at CYP2D6; 0% at CYP3A4.
`COC(=O)NS(=O)(=O)c1sc(CC(C)C)c(C)c1-c1ccc(Cn2ccnc2Cl)c(F)c1` [Compound I-14, Methyl ((3-(4-((2-chloro-1H-imidazol-1-yl)methyl)-3-fluorophenyl)-5-isobutyl-4-methylthiophen-2-yl)sulfonyl)carbamate] came in with an IC50 at AT2R of 1.39 nM. Also, the inhibition at 10 µM at CYP1A2 worked out at 5.6%; at CYP2B6, 4.3%; at CYP2C19, 11.9%; at CYP2C9, 24.8%; on CYP2D6, 2.1%; at CYP3A4, 14%.
